# Laboratory results taken from ChEMBL document CHEMBL3098121, “Dactyloditerpenol acetate, a new prenylbisabolane-type diterpene from Aplysia dactylomela with significant in vitro anti-neuroinflammatory activity” (Bioorg Med Chem Lett, 2014).
# Experiments:
# [1] = Cytotoxicity against rat brain neonatal microglia by LDH release assay
# [2] = Antineuroinflammatory activity in rat brain neonatal microglia assessed as inhibition of LPS-induced superoxide anion generation; format: functional, tissue-based
# [3] = Antineuroinflammatory activity in rat brain neonatal microglia assessed as inhibition of LPS-induced TXB2 generation; format: functional, tissue-based
# [4] = tested on: Mycobacterium tuberculosis; assay: Antimycobacterial activity against Mycobacterium tuberculosis H37Rv; format: functional
# A2058 = assay: Cytotoxicity against human A2058 cells; format: functional
# DU-145 = assay: Cytotoxicity against human DU145 cells; format: functional
# [5] = Antineuroinflammatory activity in rat brain neonatal microglia; format: functional, tissue-based
smiles,measurement,setting,value
CC(=O)O[C@@H](CC[C@@H](C)[C@@H]1CCC(C)=C[C@H]1O)[C@](C)(O)CCC=C(C)C,IC50,[1],> 10000 nM
same,IC50,[2],1000 nM
same,IC50,[3],400 nM
same,MIC,[4],59.4 µg/mL
same,Activity,A2058,67%
same,Activity,DU-145,77%
CC(=O)Oc1ccccc1C(=O)O [ASPIRIN],IC50,[5]; read-out: IC50,3.2 nM
CC(C(=O)O)c1ccc(-c2ccccc2)c(F)c1 (stereo not drawn) [FLURBIPROFEN],IC50,[5]; read-out: IC50(app),100 nM
